The experiment concerns paternal Ube3aYFP protein. Description: Paternal Ube3aYFP protein levels by immunofluorescent imaging in mouse primary hippocampal neurons. Type of experiment: cell-based. As to conditions: treated 7 DIV, imaged 10 DIV; ASOs 1, 5, 15 μM, Topotecan 300 nM; compared to ASO-C and Veh. As to the method: Based on these findings, mouse-specific ASOs were designed to target a specific region in the Ube3a-AS transcript (Table 6 and FIG. 2A). To test whether ASOs targeting this region reactivate expression of the paternal Ube3a allele, primary hippocampal neuronal cultures were generated from the Ube3aYFP reporter mouse model (Ube3a+/YFP; FIG. 2B) and treated at 7 days in vitro (DIV) with a control ASO [ASO-C (10 uM, n=3)], three ASOs targeting Ube3a-AS [ASO-1.1, ASO-1.2, ASO-3.1 (1 μM, 5 μM, and 15 μM, n=3)], and ASO-B (1 μM, 5 μM, and 15 μM, n=3)]. As a positive control, neurons were also treated with Topotecan [Topo (300 nM, n=3)] and a negative vehicle control [Veh (1%, n=3); FIG. 2 C]. Three days post-treatment (10 DIV), immunofluorescent imaging was used to quantify paternal Ube3aYFP protein levels in individual cells.
Primary cultures of hippocampal neurons were generated from P0-P1 pups (Ube3a^m+/p+ and Ube3a^m+/pYFP) by crossing Ube3a^m+/pYFP males with wild-type C57BL/6J females. Genotypes were determined using methods described previously. Briefly, hippocampal neurons were cultured in Neurobasal A medium (Invitrogen, San Diego, Calif.) supplemented with B27 (Invitrogen) and penicillin/streptomycin (Invitrogen) on 96-well optical bottom plates coated with poly-D-Lysine (152028, Thermo Fisher Scientific) and laminin (23017-01, Thermo Fisher Scientific). […]

The record followed here is patent US11198869B2, “Angelman syndrome antisense treatment” (The Texas A&M University System, priority 2017, dated 2021).

“C^O*C^O*A^O*C^O*A^O*t*t*t*c*c*t*c*t*c*a*U^O*G^O*G^O*A^O*A^O [ASO-1.1]”: the “paternal Ube3aYFP protein levels” value was “level similar to that achieved by the optimal concentration of Topotecan”.
